From patent US10100335B2, “Microbial production of branched medium chain alcohols, such as 4-methylpentanol” (Massachusetts Institute of Technology, priority 2013, dated 2018)
Values after ≈ are worked out from the molar mass of the structure shown.

Legend:
[1] = target: T1, CarNi (Nocardia iowensis carboxylic acid reductase) (Nocardia iowensis, UniProt Q6RKB1); type: biochemical; conditions: for observed CarNi activity relative to activity on 4-methyl-valerate: in vitro, his-purified CarNi, 50 mM acid substrate; for CarNi activity on aliphatic acid substrate: 13 straight and branched acids from C2-C8
T1 construct: made in house; host or cells: E. coli BL21 Star (DE3) harboring pET/His-Car-RBS2-Sfp
Protocol: Strain M4 expressing car-sfp-ADH6 was fed five different acids at 10 mM initial concentration. Selectivity was determined by measuring normalized titers 5 hours post induction of gene expression. […] Initial rates were measured by monitoring NADPH consumption by measuring absorption at 340 nm.
Assays were devised to confirm activity on desired substrates in vitro and in vivo. In the first, N-terminal his-tagged CarNi was purified and assayed by UV absorption of NADPH with 13 straight and branched acids from C2-C8. […] A complementary in vivo assay was designed to examine the effectiveness of the Module 4 pairing. Butyrate, valerate. 3-methyl-valerate, 4-methyl-valerate, and hexanoate were fed to E. coli cultures expressing CarNi/ADH6Sc and conversion was monitored by sampling the culture media and liquid chromatography (LC).
Relative Activity Assay for Purified his-Car: An overnight culture of BL21 Star (DE3) (Invitrogen) harboring pET/His-Car-RBS2-Sfp was used as 10% (v/v) inoculum in 2 L of LB Broth. The culture was incubated at 30° C. and 250 rpm, and expression was induced using a final concentration of 1 mM IPTG at OD 0.6. Cells were harvested after 20 hours using centrifugation and resuspended in a buffer containing 50 mM Tris-HCl pH 8.0, 300 mM NaCl, and 10% glycerol. Cells were subsequently lysed using sonication. The supernatant was collected and applied to a column containing Ni-NTA resin (Qiagen). Affinity chromatography was performed using step-wise increasing concentrations of imidazole. Fractions containing purified His6-Car were dialyzed overnight at 4° C. into 50 mM Tris-HCl pH 7.5, 50 mM NaCl, 1 mM DTT, and 10% glycerol. Dialyzed enzyme was then flash frozen using liquid nitrogen and stored at −80° C. The activity of His-Car on various substrates was determined by changes in absorbance at 340 nm for up to 5 minutes in 96-well microplates using a plate reader (Tecan Infinite F200 Pro). Reactions were prepared as follows: 100 mM Tris-HCl pH 7.5, 10 mM MgCl2, 0.6 mM NADPH, 1 mM ATP, 224 nM His-Car, and 50 mM pH neutralized acid substrate. Changes in absorbance at 340 nm were detected using a filter. All substrates were assayed in triplicate. For KM and Vmax determinations, substrates were assayed at 5 different concentrations.

MG1655(DE3) endA recA = assay: Toxicity of exogenously added alcohols on exponential growth rate; type: cell-based, E. coli; conditions: for reduction in growth rate: 10 mM alcohol in LB medium with 1.2% glucose
Protocol: The exponential growth rate was unchanged by 4-methyl-1-pentanol concentrations exceeding those observed in final titers (193±23 mg/L) for the high producing Strain M1Fj(IA)2I34. The highest 4-methyl-1-pentanol concentration (10 mM, 1022 mg/L) did lead to a reduction in growth rate of 40%. […] If higher titers of 4-methyl-1-pentanol are achieved, in situ gas stripping or simple phase separation could potentially be used to extract 4-methyl-1-pentanol from the culture medium (Lee 1994).
Duplicate 3 ml cultures in LB+1.2% glucose+alcohol were inoculated to an initial OD600 of 0.1. Cultures were contained in the same 50 ml screw-cap tubes used in production experiments. […] Growth was monitored by optical density and the growth rate was calculated from a linear regression of the natural log of the OD600 values for the 1.5, 2, and 2.5 hour post-inoculation time points.

[2] = cited from earlier work

T1 sequence (Q6RKB1 whole entry): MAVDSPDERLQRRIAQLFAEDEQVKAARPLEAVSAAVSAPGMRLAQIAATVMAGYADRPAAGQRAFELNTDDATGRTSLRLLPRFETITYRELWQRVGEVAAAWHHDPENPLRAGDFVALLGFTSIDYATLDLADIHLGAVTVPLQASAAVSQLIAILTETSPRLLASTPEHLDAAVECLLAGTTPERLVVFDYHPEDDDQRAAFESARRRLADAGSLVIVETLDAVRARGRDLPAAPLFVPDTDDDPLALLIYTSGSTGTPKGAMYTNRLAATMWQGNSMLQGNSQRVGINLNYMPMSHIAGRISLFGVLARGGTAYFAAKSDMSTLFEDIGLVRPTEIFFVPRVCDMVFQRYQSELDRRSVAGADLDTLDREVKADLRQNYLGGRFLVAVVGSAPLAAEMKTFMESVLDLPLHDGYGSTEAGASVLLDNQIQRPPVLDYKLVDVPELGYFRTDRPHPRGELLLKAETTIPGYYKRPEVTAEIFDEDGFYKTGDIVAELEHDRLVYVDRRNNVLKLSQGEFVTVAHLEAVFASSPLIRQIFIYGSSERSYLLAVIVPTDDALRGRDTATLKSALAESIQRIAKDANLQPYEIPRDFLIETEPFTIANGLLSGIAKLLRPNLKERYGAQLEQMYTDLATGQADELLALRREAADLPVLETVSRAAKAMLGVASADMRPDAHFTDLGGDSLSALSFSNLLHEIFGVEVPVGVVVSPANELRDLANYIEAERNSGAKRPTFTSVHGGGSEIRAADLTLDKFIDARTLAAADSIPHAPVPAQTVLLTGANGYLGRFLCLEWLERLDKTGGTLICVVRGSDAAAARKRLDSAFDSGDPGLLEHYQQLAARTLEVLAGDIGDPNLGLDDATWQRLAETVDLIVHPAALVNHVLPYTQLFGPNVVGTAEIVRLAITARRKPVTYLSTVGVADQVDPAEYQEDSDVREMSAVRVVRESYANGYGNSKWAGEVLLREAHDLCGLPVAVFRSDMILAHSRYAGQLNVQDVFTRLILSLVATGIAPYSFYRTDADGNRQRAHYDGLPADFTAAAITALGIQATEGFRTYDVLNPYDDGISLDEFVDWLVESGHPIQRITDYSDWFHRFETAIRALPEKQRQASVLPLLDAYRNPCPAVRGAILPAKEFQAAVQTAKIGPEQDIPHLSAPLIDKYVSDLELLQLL

Row | SMILES | observed CarNi activity relative to activity on 4-methyl-valerate [1] | reduction in growth rate (MG1655(DE3) endA recA) | effect on exponential growth rate (MG1655(DE3) endA recA; concentrations up to 5 mM) | CarNi activity on aliphatic acid substrate [1] | further results
1 | CCCC(=O)O [butyrate] | 56% |  |  |  | 
2 | CC(C)CO [isobutanol] |  | 10% | did not inhibit |  | 
3 | CC(C)C(=O)O [isobutyrate] | 25% |  |  | reduced activity | Km ([1]; purified His-CarNi, initial rates by NADPH consumption at 340 nm): 78 ± 9 mM
4 | CC(C)CCCO [4-methyl-1-pentanol] |  | 40% | did not inhibit |  | effect on exponential growth rate (MG1655(DE3) endA recA; concentrations exceeding those observed in final titers (193±23 mg/L)): unchanged; solubility in water [2]: 7400 µg/mL (≈ 72.4 mM)
5 | CCC(C)CCC(=O)O (stereo not drawn) [4-methyl-hexanoate] |  |  |  | highest activity | 
6 | CC(=O)O [acetate] |  |  |  | reduced activity | 
